Here are results for 18 molecules from patent US5140009A (Tap Pharmaceuticals, Inc., priority 1990, dated 1992).

Numbered stars: 1 amine (or outer) side, 2 acyl side, 3 side chain; on linkers, the order of the positions; unused ones are H or OH. Square brackets hold non-standard residues; d marks the D form. Peptide text beside a SMILES is read from it. * marks the point of attachment. Propanoyl(3-indol-3-yl) = O=C(CCc1c[nH]c2ccccc12)*; Propanoyl(3-(3,4-F2Ph)) = O=C(CCc1ccc(F)c(F)c1)*; Propanoyl(3-(4-F-phenyl)) = O=C(CCc1ccc(F)cc1)*; Propanoyl(3-(4-MeO-Ph)) = COc1ccc(CCC(=O)*)cc1; Hydrocinnamoyl(2,4-F2) = O=C(CCc1ccc(F)cc1F)*; Desaminotyrosyl = O=C(CCc1ccc(O)cc1)*; d1Nal = N[C@H](Cc1cccc2ccccc12)C(=O)O; d2Nal = N[C@H](Cc1ccc2ccccc2c1)C(=O)O; Cyclopentanecarbonyl = O=C(C1CCCC1)*; Lys(iPr) = CC(C)NCCCC[C@H](N)C(=O)O; NMeY = CN[C@@H](Cc1ccc(O)cc1)C(=O)O; Hydrocinnamoyl = O=C(CCc1ccccc1)*; Benzoyl(4-F) = O=C(c1ccc(F)cc1)*; Piperazinyl(4-Me) = CN1CCN(*)CC1; d2Thi = N[C@H](Cc1cccs1)C(=O)O; Nicotinoyl = O=C(c1cccnc1)*; NMeS = CN[C@@H](CO)C(=O)O; Morpholide = C1CN(*)CCO1; Orn = NCCC[C@H](N)C(=O)O; X15 = O=C(Cc1ccc(O)cc1)*; PhAc = O=C(Cc1ccccc1)*; X6 = O=C(CCc1ccccc1F)*; NHcHex = C1CCC(N*)CC1; CO = O=C([*:1])[*:2]

The first assay has as its target T1, LHRH receptors (Rattus norvegicus, UniProt P30969).
T1 construct: Pituitary membranes containing LHRH receptors are prepared in batches from quick-frozen rat pituitaries; tissue Hilltop Labs; host or cells: rat pituitary membranes
T1 sequence (P30969 1-327): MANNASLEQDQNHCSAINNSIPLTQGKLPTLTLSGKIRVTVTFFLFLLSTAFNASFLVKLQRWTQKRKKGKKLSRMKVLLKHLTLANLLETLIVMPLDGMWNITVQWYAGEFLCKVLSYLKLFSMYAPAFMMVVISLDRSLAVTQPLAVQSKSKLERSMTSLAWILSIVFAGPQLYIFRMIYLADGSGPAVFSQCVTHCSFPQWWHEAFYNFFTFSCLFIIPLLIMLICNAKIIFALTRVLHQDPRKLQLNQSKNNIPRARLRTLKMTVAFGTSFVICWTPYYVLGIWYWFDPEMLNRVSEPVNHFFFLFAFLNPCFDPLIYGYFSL
The assay can be described thus: Receptor Binding (radioligand receptor binding assay). Particulars: table 3; rat pituitary membranes, radioiodinated [D-Leu^6 -des Gly^10 ]-LHRH ethyl amide 50 pM, 2 hours at 4° C.; read-out: Receptor Binding pkI (converted).
On to `CCNC(=O)[C@@H]1CCCN1C(=O)[C@H](CCCN=C(N)N)NC(=O)[C@H](CC(C)C)NC(=O)[C@@H](Cc1c[nH]c2ccccc12)NC(=O)[C@H](Cc1ccc(O)cc1)NC(=O)[C@H](CO)NC(=O)[C@H](Cc1c[nH]c2ccccc12)NC(=O)CCc1ccc(O)cc1` [Compound 99, (3-9)[N-(3-(4-Hydroxyphenyl)propionyl) -Trp^3 -D-Trp^6 -Pro^9 NHEt]LHRH] (Desaminotyrosyl-WSY[dW]LRP-NHEt), for which the Ki was 0.0832 nM.

For `CCNC(=O)[C@@H]1CCCN1C(=O)[C@H](CCCNC(=N)N)NC(=O)[C@H](CC(C)C)NC(=O)[C@@H](Cc1c[nH]c2ccccc12)NC(=O)[C@H](Cc1ccc(O)cc1)NC(=O)[C@H](CO)NC(=O)[C@H](Cc1c[nH]c2ccccc12)NC(=O)[C@H](Cc1ccccc1)NC(=O)N1CCN(C)CC1` [Compound 128, (2-9)[N-(N-alpha-N-methylpiperazinocarbonyl)-Phe^2 -D-Trp^6 -Pro^9 NHEt]LHRH] ({Piperazinyl(4-Me)-CO}-FWSY[dW]LRP-NHEt), the Ki was 0.447 nM.

In the case of `CCNC(=O)[C@@H]1CCCN1C(=O)[C@H](CCCNC(=N)N)NC(=O)[C@H](CC(C)C)NC(=O)[C@@H](Cc1c[nH]c2ccccc12)NC(=O)[C@H](Cc1ccc(O)cc1)NC(=O)[C@H](CO)NC(=O)[C@H](Cc1c[nH]c2ccccc12)NC(=O)[C@H](Cc1ccccc1)NC(=O)NC1CCCCC1` [Compound 125, (2-9)[N-(N-alpha-Cyclohexylaminocarbonyl)-Phe^2 -D-Trp^6 -Pro^9 NHEt]LHRH] ({NHcHex-CO}-FWSY[dW]LRP-NHEt), the Ki was 0.251 nM.

In the case of `CCNC(=O)[C@@H]1CCCN1C(=O)[C@H](CCCNC(=N)N)NC(=O)[C@H](CC(C)C)NC(=O)[C@@H](Cc1c[nH]c2ccccc12)NC(=O)[C@H](Cc1ccc(O)cc1)NC(=O)[C@H](CO)NC(=O)CCc1ccc(OC)cc1` [Compound 78, (4-9)[N-(3-(4-Methoxyphenyl)propionyl) -Ser^4 -D-Trp^6 -Pro^9 NHEt]LHRH] ({Propanoyl(3-(4-MeO-Ph))}-SY[dW]LRP-NHEt), the Ki is 10.7 nM.

For `CC(C)C[C@H](NC(=O)[C@@H](Cc1ccc2ccccc2c1)NC(=O)[C@H](Cc1ccc(O)cc1)NC(=O)[C@H](CO)NC(=O)CCc1c[nH]c2ccccc12)C(=O)N[C@@H](CCCNC(=N)N)C(=O)N1CCC[C@H]1C(=O)N[C@H](C)C(N)=O` [Compound 56, N-(3-(3-Indole)propionyl)-Ser-Tyr-D-2-Nal-Leu-Arg-Pro-D-AlaNH2] ({Propanoyl(3-indol-3-yl)}-SY[d2Nal]LRP[dA]-NH2), the Ki was 0.646 nM.

Turning to `CCNC(=O)[C@@H]1CCCN1C(=O)[C@H](CCCNC(=N)N)NC(=O)[C@H](CC(C)C)NC(=O)[C@@H](Cc1c[nH]c2ccccc12)NC(=O)[C@H](Cc1ccc(O)cc1)NC(=O)[C@H](CO)NC(=O)[C@H](Cc1c[nH]c2ccccc12)NC(=O)C(CC(=O)N1CCOCC1)Cc1cccc2ccccc12` (single isomer, unassigned) [Compound 131], the Ki is 0.631 nM.

Turning to `CCNC(=O)[C@@H]1CCCN1C(=O)[C@H](CCCNC(=N)N)NC(=O)[C@H](CC(C)C)NC(=O)[C@@H](CC(C)C)NC(=O)[C@H](Cc1ccc(O)cc1)NC(=O)[C@H](CO)NC(=O)[C@H](Cc1c[nH]c2ccccc12)NC(=O)CCc1ccccc1` [Compound 66, (3-9)[N-(3-Phenylpropionyl)-Trp^3 -D-Leu^6 -Pro^9 -NHEt]LHRH] (Hydrocinnamoyl-WSY[dL]LRP-NHEt), the Ki was 1.78 nM.

In the case of `CCNC(=O)[C@@H]1CCCN1C(=O)[C@H](CCCNC(=N)N)NC(=O)[C@H](CC(C)C)NC(=O)[C@@H](CCCNC(=N)N)NC(=O)[C@H](Cc1ccc(O)cc1)NC(=O)[C@H](CO)NC(=O)[C@H](Cc1c[nH]c2ccccc12)NC(=O)[C@H](Cc1ccccc1)NC(=O)C1CCCC1` [Compound 70, N-(Cyclopentylcarbonyl)-Phe-Trp-Ser-Tyr-D-Arg-Leu-Arg-Pro-NHEt] (Cyclopentanecarbonyl-FWSY[dR]LRP-NHEt), the Ki was 0.145 nM.

As to `CCNC(=O)[C@@H]1CCCN1C(=O)[C@H](CCCNC(=N)N)NC(=O)[C@H](CC(C)C)NC(=O)[C@@H](Cc1c[nH]c2ccccc12)NC(=O)[C@H](Cc1ccc(O)cc1)NC(=O)[C@H](CO)NC(=O)[C@H](Cc1c[nH]c2ccccc12)NC(=O)[C@H](Cc1c[nH]cn1)NC(=O)N1CCOCC1` [Compound 109, (2-9)[N-(N-alpha-Morpholinocarbonyl)-His^2 -D-Trp^6 -Pro^9 NHEt]LHRH] ({Morpholide-CO}-HWSY[dW]LRP-NHEt), the Ki is 0.316 nM.

Take `CCNC(=O)[C@@H]1CCCN1C(=O)[C@H](CCCNC(=N)N)NC(=O)[C@H](CC(C)C)NC(=O)[C@@H](Cc1c[nH]c2ccccc12)NC(=O)[C@H](Cc1ccc(O)cc1)NC(=O)[C@H](CO)NC(=O)[C@H](Cc1c[nH]c2ccccc12)NC(=O)CCc1ccccc1F` [Compound 88, (3-9)[N-(3-(2-Fluorophenyl)propionyl) -Trp^3 -D-Trp^6 -Pro^9 NHEt]LHRH] (X6-WSY[dW]LRP-NHEt): the Ki was 0.0575 nM.

In the case of `CCNC(=O)[C@@H]1CCCN1C(=O)[C@H](CCCNC(=N)N)NC(=O)[C@H](CC(C)C)NC(=O)[C@@H](Cc1c[nH]c2ccccc12)NC(=O)[C@H](Cc1ccc(O)cc1)NC(=O)[C@H](CO)NC(=O)Cc1ccccc1` [Compound 17, (4-9)[N-(Phenylacetyl)-Ser^4 -D-Trp^6 -Pro^9-NHEt] LHRH] (PhAc-SY[dW]LRP-NHEt), the Ki was 6.61 nM.

For `CCNC(=O)[C@@H]1CCCN1C(=O)[C@H](CCCNC(=N)N)NC(=O)[C@H](CC(C)C)NC(=O)[C@@H](Cc1c[nH]c2ccccc12)NC(=O)[C@H](Cc1ccc(O)cc1)NC(=O)[C@H](CO)N(C)C(=O)[C@H](Cc1c[nH]c2ccccc12)NC(=O)[C@H](Cc1ccccc1)NC(=O)N1CCOCC1` [Compound 115, (2-9)[N-(N-alpha-Morpholinocarbonyl)-Phe^2 -N-Me-Ser^4 -D-Trp^6-Pro^9 -NHEt]LHRH] ({Morpholide-CO}-FW[NMeS]Y[dW]LRP-NHEt), the Ki was 2.24 nM.

`CCNC(=O)[C@@H]1CCCN1C(=O)[C@H](CCCNC(=N)N)NC(=O)[C@H](CC(C)C)NC(=O)[C@@H](Cc1c[nH]c2ccccc12)NC(=O)[C@H](Cc1ccc(O)cc1)NC(=O)[C@H](CO)NC(=O)Cc1ccc(O)cc1` [Compound 73, (4-9)[N-(3-(4-Hydroxyphenyl)acetyl) -Ser^4 -D-Trp^6 -Pro^9 NHEt]LHRH] (X15-SY[dW]LRP-NHEt): the Ki was 70.8 nM.

Still in this assay, the particulars now being: table 4; rat pituitary membranes, radioligand 50 pM, 2 hours at 4° C.; read-out: Receptor Binding pkI (converted).
For `CC(=O)NCCC[C@H](NC(=O)c1ccc(F)cc1)C(=O)N[C@H](Cc1cccc2ccccc12)C(=O)N[C@@H](CO)C(=O)N(C)[C@@H](Cc1ccc(O)cc1)C(=O)N[C@H](CCCCNC(=O)c1cccnc1)C(=O)N[C@@H](CC(C)C)C(=O)N[C@@H](CCCCNC(C)C)C(=O)N1CCC[C@H]1C(=O)N[C@H](C)C(N)=O` [Compound 218, N-alpha-(4-Fluorobenzoyl)-Orn(N-delta-acetyl)-D-1-Nal-Ser-NMeTyr-D-Lys(N-epsilon-nicotinyl)-Leu-Lys(N-epsilon-isopropyl)-Pro-D-AlaNH2] ({Benzoyl(4-F)}-[Orn](Ac)[d1Nal]S[NMeY][dK](Nicotinoyl)L[Lys(iPr)]P[dA]-NH2), the Ki was 0.832 nM.

As to `CCNC(=O)[C@@H]1CCCN1C(=O)[C@H](CCCN=C(N)N)NC(=O)[C@H](CC(C)C)NC(=O)[C@@H](CCCCNC(=O)c1cccnc1)NC(=O)[C@H](Cc1ccc(O)cc1)N(C)C(=O)[C@H](CO)NC(=O)[C@@H](Cc1c[nH]c2ccccc12)NC(=O)CCc1ccc(F)cc1F` [Compound 152, (3-9)[N-(3-(2,4-diFluorophenyl)propionyl) -D-Trp^3 -NMeTyr^5 -D-Lys^6 (N-epsilon-nicotinyl)-Pro^9 NHEt]LHRH] ({Hydrocinnamoyl(2,4-F2)}-[dW]S[NMeY][dK](Nicotinoyl)LRP-NHEt), the Ki is 0.0214 nM.

Take `CC(C)C[C@H](NC(=O)[C@@H](CCCCN)NC(=O)[C@H](Cc1ccc(O)cc1)N(C)C(=O)[C@H](CO)NC(=O)[C@@H](Cc1ccc2ccccc2c1)NC(=O)CCc1ccc(F)cc1)C(=O)N[C@@H](CCCNC(=N)N)C(=O)N1CCC[C@H]1C(=O)N[C@H](C)C(N)=O` [Compound 186, (3-10)[N-(3-(4-Fluorophenyl)propionyl)-D-2-Nal^3 -NMeTyr^5 -D-Lys^6 -D-Ala^10]LHRH] ({Propanoyl(3-(4-F-phenyl))}-[d2Nal]S[NMeY][dK]LRP[dA]-NH2): the Ki is 0.0339 nM.

`CCNC(=O)[C@@H]1CCCN1C(=O)[C@H](CCCNC(=N)N)NC(=O)[C@H](CC(C)C)NC(=O)[C@@H](Cc1c[nH]c2ccccc12)NC(=O)[C@H](Cc1ccc(O)cc1)NC(=O)[C@H](CO)NC(=O)[C@@H](Cc1cccs1)NC(=O)[C@H](Cc1ccccc1)NC(=O)N1CCOCC1` [Compound 236, (2-9)[N-(alpha-Morpholinocarbonyl)-Phe^2 -D-Thia^3 -D-Trp^6 -Pro^9 NHEt]LHRH] ({Morpholide-CO}-F[d2Thi]SY[dW]LRP-NHEt): the Ki was 0.708 nM.

For `CCNC(=O)[C@@H]1CCCN1C(=O)[C@H](CCCN=C(N)N)NC(=O)[C@H](CC(C)C)NC(=O)[C@@H](Cc1c[nH]c2ccccc12)NC(=O)[C@H](Cc1ccc(O)cc1)NC(=O)[C@H](CO)NC(=O)[C@@H](Cc1c[nH]c2ccccc12)NC(=O)CCc1ccc(F)c(F)c1` [Compound 151, (3-9)[N-(3-(3,4-diFluorophenyl)propionyl) -D-Trp^3,6 -Pro^9 NHEt]LHRH] ({Propanoyl(3-(3,4-F2Ph))}-[dW]SY[dW]LRP-NHEt), the Ki is 0.0282 nM.
